Laboratory results reported in US20110158953A1, “TUMOR SUPPRESSION THROUGH PLEXIN C1” (UNIVERSITY OF ROCHESTER, priority 2008, published 2011).
“Also recorded” adds a separate entry of the source.

Experiments:
Plexin C1 = Plexin C1 protein expression in human melanoma cell lines treated with DNA methylation inhibitor (Western blot); format: cell-based; conditions: 5 days; for Change in Plexin C1 protein: 3 μM
Description: Results are representative of 2 separate experiments.
Promotor hypermethylation plays a major role in transcriptional silencing of tumor suppressor genes in cancer and in melanoma (Dahl and Guldberg, 2007; Gronbaek et al., 2007; Rothhammer and Bosserhoff, 2007). To determine if Plexin C1 expression is regulated by DNA hypermethylation, melanoma cells were treated for 5 days with the DNA methylation inhibitor 5-Aza-2′-Deoxycytidine (5-Aza2Dc; 3 μM). Total cell lysates were then blotted for Plexin C1. […] But, a dose of 1.0 μM was the lowest dose that stimulated Plexin C1 expression in the YURIF and WW165 cell lines (FIG. 1C).
Neonatal foreskins were obtained according to the University of Rochester Research Subjects Review Board guidelines and were the source of cultured human melanocytes. Human melanocytes were cultured in MCDB 153 supplemented with 0.5% fetal bovine serum (FBS), bovine pituitary extract (15 μg/ml), phorbol ester (10 nM), basic fibroblast growth factor (1 ng/ml), insulin (5 μg/ml) and hydrocortisone (500 ng/ml). All supplements were purchased from Sigma Co, except FBS, which was purchased from Mediatech (Manassas, Va.). The following human melanoma cell lines were purchased from the Yale University Cell Core Facility: WW165, YURIF, YUSIK, YUMAC, and were maintained in Opti-MEM+5% FBS, except WW165 which was maintained in Opti-MEM+5% FBS and IBMX 0.1 mM. The C32 and WM115 human melanoma cell lines were obtained from American Type Culture Collection (Manassas Va.) and were maintained in Eagle Minimal Essential Media (MEM)+10% FBS and 1 mM sodium pyruvate. The WM115 and WW 165 cell lines were derived from melanomas primary to the skin; the other cell lines were derived from metastatic melanoma.
For Western blotting, cells were lysed in RIPA buffer (150 mM NaCl, 1% NP-40, 0.5% DOC, 0.1% SDS, 50 mM Tris-HCl) with protease inhibitors (Boehringer Mannheim, Gmbt, Germany) and phosphatase inhibitors (Gbiosciences, St. Louis, Mo.) and protein was quantified using bovine serum albumen (BSA) as standard (Bio-Rad Laboratories, Hercules, Calif.). Visualization of the immunoreactive proteins was accomplished with an enhanced chemiluminescence reaction (Pierce Chemical, Rockford, Ill.). For analysis of cell surface Sema7A expression in melanoma cell lines by flow cytometry, cells were placed in suspension in PBS/1% BSA and stained with FITC-conjugated antibodies against Sema7A for 30 minutes at room temperature. Negative controls consisted of cells incubated with FITC-conjugated IgM. After washing in PBS, cells were re-suspended in 0.5% formalin in PBS/1% BSA and analyzed using a FACS Caliber Machine (Becton Dickenson) at the flow cytometry core facility at the University of Rochester.

Erk1/Erk2 = test: Sema7A-stimulated MAP kinase activation (P-Erk1/Erk2) in human melanocytes (Western blot); format: cell-based; conditions: PD 98059 10 μM one hour prior to Sema7A 25 ng/ml for 5 minutes
Description: Total cell lysates were resolved on 10% SDS-PAGE and blotted for phosphorylated Erk1/Erk2; the blot was stripped and re-blotted for total Erk1/Erk2. […] Results are representative of 2 separate experiments. The specificity of MAP kinase activation was tested in melanocytes by the inclusion of the selective p42/44 MAP kinase inhibitor PD 98059 (10 μM) in cells treated with Sema7A (25 ng/ml) for 5 minutes (FIG. 4D). Shown are cell lyates resolved on SDS-PAGE and blotted for P-Erk1/Erk2. The blot was stripped and reblotted for total Erk1/Erk2. As expected, Sema7A stimulated phosphorylation of Erk1/Erk2 within 5 minutes of treatment. […] Results are representative of 2 separate experiments. […]
For Western blotting, cells were lysed in RIPA buffer (150 mM NaCl, 1% NP-40, 0.5% DOC, 0.1% SDS, 50 mM Tris-HCl) with protease inhibitors (Boehringer Mannheim, Gmbt, Germany) and phosphatase inhibitors (Gbiosciences, St. Louis, Mo.) and protein was quantified using bovine serum albumen (BSA) as standard (Bio-Rad Laboratories, Hercules, Calif.). […] After washing in PBS, cells were re-suspended in 0.5% formalin in PBS/1% BSA and analyzed using a FACS Caliber Machine (Becton Dickenson) at the flow cytometry core facility at the University of Rochester.

Row | SMILES | Change in Plexin C1 protein (Plexin C1; C32 melanoma cells) | Change in Plexin C1 protein (Plexin C1; WM115 melanoma cells) | Lowest dose that stimulated Plexin C1 expression (Plexin C1; WW165 cells, dose response 0.1 μM to 3.0 μM) | Change in Plexin C1 protein (Plexin C1; WW165 melanoma cells) | Change in Plexin C1 protein (Plexin C1; WW165 melanoma cells, listed as 5-AzaDc) | Dose sufficient to increase Plexin C1 expression (Plexin C1; YUMAC cells, dose response 0.1 μM to 3.0 μM) | Change in Plexin C1 protein (Plexin C1; YUMAC melanoma cells) | Lowest dose that stimulated Plexin C1 expression (Plexin C1; YURIF cells, dose response 0.1 μM to 3.0 μM) | Change in Plexin C1 protein (Plexin C1; YURIF melanoma cells) | Change in Plexin C1 protein (Plexin C1; YURIF melanoma cells, listed as 5-AzaDc) | Change in Plexin C1 protein (Plexin C1; YUSIK melanoma cells) | Effect on Sema7A-induced Erk1/Erk2 phosphorylation (Erk1/Erk2)
1 | Nc1ncn([C@H]2C[C@H](O)[C@@H](CO)O2)c(=O)n1 [5-Aza2Dc, 5-Aza-2′-Deoxycytidine] | no change | no change | 1.0 µM | reduction | decrease | 0.1 µM | increase | 1.0 µM | reduction | decrease | no change | –
2 | COc1cccc(-c2cc(=O)c3ccccc3o2)c1N [PD 98059] | – | – | – | – | – | – | – | – | – | – | – | no induction; also recorded: inhibited
